Like-named read-outs stand apart in the source and are kept apart here.

The values below come from patent US9334246B2, “Substituted triazines for malaria treatment and chemoprophylaxis” (The United States of America, as represented by the …, priority 2013, dated 2016).

One series concerns P. falciparum D6. The series is described as follows: Malaria SYBR Green Fluorescence Assay, D6 strain. It counts as cell-based, Plasmodium falciparum. To be noted: for D6: SYBR Green Assay.
The next series concerns P. berghei. The series is described as follows: Thompson Test, in vivo mouse malaria assay. Set-up: species or system mice (ICR strain).
Another series has as its system P. falciparum C235. The series is described as follows: Malaria SYBR Green Fluorescence Assay, C235 strain. The series is classed as cell-based, Plasmodium falciparum. To be noted: for C235: SYBR Green Assay.
The target of series [1] is T1, hERG potassium ion channel (Homo sapiens, UniProt Q12809). Kind of series: hERG patch clamp assay (% inhibition at 10 μM). A general note: The hERG channel carries a current that helps repolarise heart muscle cells.
The subject of the next series is P. falciparum W2. Kind of series: Malaria SYBR Green Fluorescence Assay, W2 strain. It counts as cell-based, Plasmodium falciparum. To be noted: for W2: SYBR Green Assay.
Series [2] has as its system drug resistant strains of P. falciparum. The series is described as follows: in vitro profiling against different drug resistant strains of P. falciparum. The series is classed as cell-based, Plasmodium falciparum.
For series [3] the following is noted: in vivo.
In series [4] the target is T1, hERG potassium ion channel. Conditions: 10 μM.
The target of a further series is hERG channel (Homo sapiens, UniProt Q12809).
Sequence of hERG channel (Q12809 whole entry): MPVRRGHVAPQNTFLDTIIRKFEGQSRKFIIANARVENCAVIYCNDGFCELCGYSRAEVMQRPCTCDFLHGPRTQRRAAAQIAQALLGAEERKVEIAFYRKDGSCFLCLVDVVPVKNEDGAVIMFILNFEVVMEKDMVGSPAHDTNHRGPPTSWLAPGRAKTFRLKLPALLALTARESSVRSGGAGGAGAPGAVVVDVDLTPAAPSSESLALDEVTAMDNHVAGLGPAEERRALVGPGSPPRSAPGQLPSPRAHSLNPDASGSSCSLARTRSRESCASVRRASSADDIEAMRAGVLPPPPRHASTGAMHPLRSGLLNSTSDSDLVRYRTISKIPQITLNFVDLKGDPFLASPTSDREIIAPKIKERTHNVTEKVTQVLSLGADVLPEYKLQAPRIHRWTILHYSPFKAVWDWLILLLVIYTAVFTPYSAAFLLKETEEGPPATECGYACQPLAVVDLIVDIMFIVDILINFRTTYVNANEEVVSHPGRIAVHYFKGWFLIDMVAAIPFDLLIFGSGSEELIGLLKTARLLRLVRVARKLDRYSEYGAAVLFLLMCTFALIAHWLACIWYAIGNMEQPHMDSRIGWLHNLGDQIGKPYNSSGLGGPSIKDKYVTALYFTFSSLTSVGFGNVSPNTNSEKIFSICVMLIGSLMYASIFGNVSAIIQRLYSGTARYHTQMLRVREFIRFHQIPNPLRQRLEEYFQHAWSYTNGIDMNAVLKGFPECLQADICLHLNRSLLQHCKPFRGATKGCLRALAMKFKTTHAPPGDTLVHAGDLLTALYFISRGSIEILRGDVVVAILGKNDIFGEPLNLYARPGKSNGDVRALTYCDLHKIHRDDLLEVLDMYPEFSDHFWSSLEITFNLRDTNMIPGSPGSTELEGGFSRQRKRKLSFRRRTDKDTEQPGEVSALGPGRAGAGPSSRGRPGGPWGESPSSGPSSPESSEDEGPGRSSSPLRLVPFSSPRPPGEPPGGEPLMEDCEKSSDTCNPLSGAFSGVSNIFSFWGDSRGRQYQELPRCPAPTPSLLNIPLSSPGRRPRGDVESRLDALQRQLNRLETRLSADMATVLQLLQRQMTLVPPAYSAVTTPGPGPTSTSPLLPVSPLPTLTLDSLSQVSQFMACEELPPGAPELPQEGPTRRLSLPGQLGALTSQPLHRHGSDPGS

T1 sequence (Q12809 whole entry): as above

As for `CC(C)(N)CNc1nc(-c2ccc(C(Cl)(Cl)Cl)cc2)nc(C(Cl)(Cl)Cl)n1` [Compound 55], the D6 in the series on P. falciparum D6 is reported as 46 ng/mL. Besides, the “In vivo Results Thompson Assay (n/N Cures or Suppressive)” value was 3/5 with P. berghei ((40 × 3): 40 mg/kg for 3 days) and 5/5 in the series with P. berghei ((80 × 3): 80 mg/kg for 3 days). Also, the results for the “Rhesus Results” value in the series with P. cynomolgi (65 mg/kg once weekly) and with P. cynomolgi (65 mg/kg/day × 7 days) were “prophylaxis” and “malaria cures”, respectively. Moreover, in the series on P. falciparum C235, the C235 amounted to 89 ng/mL. Besides, the hERG in series [1] (% inhibition at 10 μM, patch clamp) is listed as 17%. Also, the W2 with P. falciparum W2 was found to be 30 ng/mL.
“CC(C)(C)c1ccc(cc1)c2nc(nc(n2)C(Cl)(Cl)Cl)N3CC4CC3CN4 [Compound 721]” returned a D6 in the series with P. falciparum D6 of 142 ng/mL. The “In vivo Results Thompson Assay (n/N Cures or Suppressive)” value in the series on P. berghei ((80 × 3): 80 mg/kg for 3 days) is given as “(80 × 3) 2/5 Cures”. The “Rhesus Results” value in the series with P. cynomolgi (65 mg/kg once weekly) is “prophylaxis”; with P. cynomolgi (65 mg/kg/day × 7 days) it was “malaria cures”. This molecule also came in with a C235 with P. falciparum C235 of 126 ng/mL. For the same molecule, the hERG in series [1] (hERG activity as % inhibition) worked out at 2%. This molecule also yielded a W2 in the series on P. falciparum W2 of 69 ng/mL.
“CC(CNc1nc(Nc2ccc(Cl)c(Cl)c2)nc(n1)C(Cl)(Cl)Cl)N(C)C [Compound 641]”: the “D6 (SYBR Green Assay IC50)” value in the series on P. falciparum D6 turned out to be 0.015 µg/mL. The in vitro potency result in [2] is listed as “excellent in vitro potency”. In [3] (po, 80 mg/kg), this molecule registered a mouse half-life of 8 h. The Cmax in series [3] (mouse) is above 600 nM. Also, the “In vivo Results Thompson Assay (n/N Cures or Suppressive)” value in the series on P. berghei ((40 × 3): 40 mg/kg for 3 days) was 2/5; in the series with P. berghei ((80 × 3): 80 mg/kg for 3 days), “(80 × 3) 5/5 Cures”. For the same molecule, the “In vivo Results Thompson Assay (n/N Cures)” value with P. berghei ((160 × 1): single 160 mg/kg PO dose) was 5/5. Moreover, the “Rhesus Results” value with P. cynomolgi (65 mg/kg once weekly) is reported as “prophylaxis”; in the series with P. cynomolgi (65 mg/kg/day × 7 days), “malaria cures”. In addition, in the series with P. cynomolgi (dosed once weekly (65 mg, PO)), the “malaria parasitemia, prophylactic drug, rhesus P. cynomolgi relapsing model” value is given as “prevented malaria parasitemia”. Also, in the series on P. cynomolgi (rhesus monkey, in vivo, 316 mg/kg), the tolerability entry is “well tolerated”. The “C235 (SYBR Green Assay IC50)” value in the series on P. falciparum C235 turned out to be 0.013 µg/mL. Moreover, the “hERG (% inhibition)” value in [4] is given as 117%. At hERG channel, this molecule registered an IC50 of 600 nM. For the same molecule, the “W2 (SYBR Green Assay IC50)” value with P. falciparum W2 amounted to 0.005 µg/mL.
Molecule “FC(F)(F)OC1═CC═C(NC2═NC(═NC(═N2)N2CCCNCC2)C(Cl)(Cl)Cl)C═C1 [Compound 659]” returned a D6 in the series on P. falciparum D6 of 19 ng/mL. Further, the “In vivo Results Thompson Assay (n/N Cures or Suppressive)” value with P. berghei ((80 × 3): 80 mg/kg for 3 days) is “(80 × 3) 4/5 Cures”. In the series with P. falciparum C235, this molecule had a C235 of 38 ng/mL. For the same molecule, the hERG in series [1] (hERG activity as % inhibition) was 58%. The W2 in the series with P. falciparum W2 was 18 ng/mL.
The corresponding values for “NC1(CNC2═NC(═NC(═N2)C2═CC═C(C═C2)C2═CC═CC═C2)C(Cl)(Cl)Cl)CCCC1 [Compound 672]” are 46 ng/mL, “(80 × 3) 4/4 Cures”, 68 ng/mL, 33% and 30 ng/mL.
In the series with P. falciparum D6, “NC1CCN(CC1)c2nc(nc(n2)C(Cl)(Cl)Cl)c3ccc(cc3)C(Cl)(Cl)Cl [Compound 743]” registered a D6 of 22 ng/mL. Further, the figures for the “In vivo Results Thompson Assay (n/N Cures or Suppressive)” value in the series on P. berghei ((40 × 3): 40 mg/kg for 3 days) and with P. berghei ((80 × 3): 80 mg/kg for 3 days) were “Suppressive” and “(80 × 3) 3/5 Cures; (40 × 3)”, respectively. Moreover, the C235 in the series on P. falciparum C235 is recorded as 14 ng/mL. In series [1] (hERG activity as % inhibition), this molecule gave a hERG of 15%. In the series with P. falciparum W2, this molecule showed a W2 of 16 ng/mL.

A word on the Cmax: it is the peak of the concentration-time curve. By IC50 is commonly meant the midpoint of a concentration-inhibition curve. Low readings indicate greater potency in that assay, high ones weaker potency in that assay.
